Entries after “also recorded” stand apart in the source; their conditions may differ. Residues, ends and D or L forms follow the SMILES beside them.
How the values were obtained:
rabbits = experiment: Cardiovascular effects in unconscious female rabbits; assay type: in vivo, rabbit; conditions: intravenous, doses up to 1 mg/kg
Description: (§1) Two safety pharmacology studies for cardiotoxicity effects have been performed.

Celiac Disease subjects = experiment: Phase IIa multiple dose POC study (CLIN1001-004), safety
Description: Study drug will be dispensed to subjects for fourteen (14) days of treatment. Study drug will be administered three times a day. […] Gluten or gluten placebo will be taken during each meal. Subjects will remain on their gluten-free diet throughout the duration of the trial.
All adverse events reported during the study will be listed, documenting course, severity, and outcome. Adverse events will be summarized by treatment, the MedDRA system organ class, and maximum severity. Laboratory parameters, vital signs, EKG assessments, and physical exam results will be summarized with descriptive statistics as appropriate.

[1] = system: human peripheral lymphocytes; experiment: In vitro chromosome aberration study; conditions: up to 1200 μg, with and without metabolic activation
healthy adults [2] = experiment: Single dose safety trial in healthy adults (CLIN1001-001); assay type: in vivo, human
Description: The single dose trial was a double-blind, placebo controlled, randomized trial of 24 healthy adults. […] All AEs reported in this study resolved without concomitant therapy. Headache was the most common AE experienced, reported one time each by 3 (13%) subjects.

healthy adults [3] = experiment: Multi-dose safety trial in healthy adults (CLIN1001-003); assay type: in vivo, human; conditions: 24 healthy adults, 250 μg, 1, or 4 mg or placebo three times a day
Description: The multi-dose trial was a double-blind, placebo controlled, randomized trial of 24 healthy adults. […] Reported AEs were all mild and headache was the most common AE.

[4] = Stability of drug substance; assay type: physicochemical; conditions: room temperature
[5] = Absorption and systemic toxicity in animals, FITC labeling; assay type: in vivo
[6] = system: Salmonella and E. coli strains; experiment: Ames test (bacterial reverse mutation assay); conditions: up to 5000 μg per plate, with and without metabolic activation
rats = experiment: Toxicity studies in rats; assay type: in vivo, rat
Description: Toxicity studies have been performed in rats and Beagle dogs. […] Any alterations in clinical chemistry, hematology, coagulation, urinalysis and organ weight data were considered coincidental based on absence of dose-response relationships and absence of histopathological changes.

[7] = Plasma drug levels, multi-dose trial; assay type: in vivo, human; conditions: 3 times a day for 10 days; llq 0.5 ng/ml
Beagle dogs = experiment: Toxicity studies in Beagle dogs; assay type: in vivo, dog
Description: […] […] Any alterations in clinical pathology profiles were considered coincidental in nature. No alterations in absolute or relative organ weight data were detected.

[8] = biological target: T1, potassium selective IKr current (hERG) (Homo sapiens, UniProt Q12809); experiment: hERG test; assay type: cell-based; conditions: up to 1 ng/mL, stably transfected, normoxic conditions
T1 construct: expressed in transfected cells; host or cells: HEK 203 cells (so in the source)
Description: as §1

[9] = CD subjects, 12 mg once daily Days 1-3, N = 14
[10] = Related = Possible, probably, definite combined causalities, 12 mg, N = 14
[11] = Phase IIa, preliminary observations
[12] = 24 healthy adults, 3, 12, or 36 mg or placebo, single dose
[13] = oral once daily for 28 days up to 1000 mg/kg
[14] = dogs, up to 9 mg/kg daily for 4 weeks

T1 sequence (Q12809 whole entry): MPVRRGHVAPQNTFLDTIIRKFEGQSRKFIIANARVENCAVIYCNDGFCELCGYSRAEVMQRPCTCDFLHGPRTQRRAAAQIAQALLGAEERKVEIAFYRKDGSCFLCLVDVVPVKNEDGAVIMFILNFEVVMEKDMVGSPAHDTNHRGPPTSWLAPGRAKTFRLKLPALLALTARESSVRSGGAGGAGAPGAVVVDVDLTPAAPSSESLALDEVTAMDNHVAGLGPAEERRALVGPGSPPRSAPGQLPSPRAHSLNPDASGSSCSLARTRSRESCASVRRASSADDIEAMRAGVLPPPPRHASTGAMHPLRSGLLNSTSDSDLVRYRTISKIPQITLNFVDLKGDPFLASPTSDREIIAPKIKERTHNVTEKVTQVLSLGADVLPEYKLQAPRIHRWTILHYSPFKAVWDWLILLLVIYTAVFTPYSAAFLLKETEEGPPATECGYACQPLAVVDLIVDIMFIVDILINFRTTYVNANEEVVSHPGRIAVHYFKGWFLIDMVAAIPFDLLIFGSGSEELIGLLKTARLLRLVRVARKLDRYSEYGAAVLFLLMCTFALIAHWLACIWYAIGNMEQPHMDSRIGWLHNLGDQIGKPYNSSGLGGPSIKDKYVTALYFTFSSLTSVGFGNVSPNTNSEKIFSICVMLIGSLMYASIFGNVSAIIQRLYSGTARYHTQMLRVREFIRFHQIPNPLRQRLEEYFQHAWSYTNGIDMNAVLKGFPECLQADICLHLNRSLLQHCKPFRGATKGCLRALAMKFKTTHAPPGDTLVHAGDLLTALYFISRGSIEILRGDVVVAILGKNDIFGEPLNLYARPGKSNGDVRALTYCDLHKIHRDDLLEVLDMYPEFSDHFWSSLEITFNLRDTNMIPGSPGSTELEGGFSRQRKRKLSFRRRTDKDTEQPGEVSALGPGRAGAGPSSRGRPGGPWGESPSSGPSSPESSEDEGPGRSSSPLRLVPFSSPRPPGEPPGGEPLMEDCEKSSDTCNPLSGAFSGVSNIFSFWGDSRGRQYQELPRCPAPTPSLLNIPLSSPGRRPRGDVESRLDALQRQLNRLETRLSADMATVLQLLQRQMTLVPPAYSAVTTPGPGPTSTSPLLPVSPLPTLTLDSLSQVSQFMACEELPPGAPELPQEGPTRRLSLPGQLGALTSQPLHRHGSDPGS
Description for CD subjects: One cohort of 24 subjects was planned, with a 2:1 randomization (drug:placebo) for once daily dosing on Days 1, 2 and 3. On Day 2, all subjects would receive a 2.5 gram oral gluten challenge in single blind fashion.
Safety measures included monitoring of AEs, standard clinical panels for chemistry, hematology, and urinalysis, pregnancy screening, EKG, vital signs and physical exam findings.
Spontaneous adverse events collected throughout the study were categorized according to WHO adverse reaction terminology and evaluated for duration, intensity, and possible association with the study drug per ICH guidelines. In addition, the following procedures were performed at various points throughout the course of the study: vital signs, complete physical exams, 12-lead electrocardiograms, full clinical (safety) laboratory analyses, serum pregnancy, urine drug screen and HIV and hepatitis serologies.
All adverse events reported during the study were listed, documenting course, severity, and outcome and summarized by treatment, giving the number of subjects who experienced an adverse event, the maximum severity, and body system. GI adeverse events for each arm were tabulated by subject count and compared via Fisher's exact test.
EKG results were classified as normal and abnormal. PR, RR, QRS, QT, and QTc intervals will be carefully examined and abnormalities tabulated.

Which “Overall safety and tolerability” value (CD subjects; 12 mg in CD subjects) does the source give for `CC(C)C[C@H](NC(=O)[C@@H](NC(=O)CNC(=O)CN)C(C)C)C(=O)N[C@H](C(=O)N[C@@H](CCC(N)=O)C(=O)N1CCC[C@H]1C(=O)NCC(=O)O)C(C)C` [AT-1001] (H-GGVLVQPG-OH) here?
Its value is “generally safe, well tolerated”.

And the “(%) of serious AEs” value (CD subjects; 12 mg, N = 14)?
The value was “(0) %”.

What about the “Number of serious AEs” value (CD subjects; 12 mg, N = 14) of the same molecule?
The value was 0.

And the “Gastrointestinal Disorders, Subject Count (%)” value (CD subjects; 12 mg, N = 14, p 0.018 vs placebo)?
Its value is 6 (43%).

And the “Number of subjects reporting an AE” value (CD subjects; CD subjects, 12 mg once daily Days 1-3, 2.5 g gluten Day 2, N = 14)?
The value was 10.

What about the “(%) of subjects discontinued study due to AE” value (CD subjects; [9]) of the same molecule?
The value was “(0) %”.

What about the “(%) of subjects reporting an AE” value (CD subjects; [9]) of the same molecule?
The value was “(71) %”.

What about the “Number of subjects discontinued study due to AE” value (CD subjects; [9]) of the same molecule?
Its value is 0.

What about the “Total number of AEs reported” value (CD subjects; [9]) of the same molecule?
The value was 32.

What about the “Abdominal Discomfort, Subject Count (%)” value (CD subjects; CD-related, 12 mg, N = 14) of the same molecule?
Its value is 0 (0%).

And the “Constipation, Subject Count (%)” value (CD subjects; CD-related, 12 mg, N = 14)?
Its value is 0 (0%).

And the “Flatulence, Subject Count (%)” value (CD subjects; CD-related, 12 mg, N = 14)?
The value was 2 (14%).

What about the “Vomiting, Subject Count (%)” value (CD subjects; CD-related, 12 mg, N = 14) of the same molecule?
The value was 3 (21%).

What about the “Diarrhoea, Subject Count (%)” value (CD subjects; CD-related, 12 mg, N = 14, p 0.017 vs placebo) of the same molecule?
The value was 2 (14%).

And the “Abnormalities in safety laboratory tests, vital signs, ECG, physical examinations” value (CD subjects; Phase Ib study)?
The value was “no clinically significant abnormalities”.

What about the “Deaths, SAEs, significant AEs, withdrawals due to AEs” value (CD subjects; Phase Ib study, 21 CD subjects, 12 mg or placebo for three days) of the same molecule?
Its value is “no serious adverse events (SAEs); also recorded: no deaths, SAEs, significant AEs, or withdrawals due to AEs”.

And the “(%) of related AEs” value (CD subjects; [10])?
The value was “(3) %”.

And the “Number of related AEs” value (CD subjects; [10])?
Its value is 1.

What about the “Dyspepsia, Subject Count (%)” value (CD subjects; not CD-related, 12 mg, N = 14) of the same molecule?
Its value is 3 (21%).

What about the “Eructation, Subject Count (%)” value (CD subjects; not CD-related, 12 mg, N = 14) of the same molecule?
The value was 1 (7%).

What about the “Gastrooesophageal Reflux, Subject Count (%)” value (CD subjects; not CD-related, 12 mg, N = 14) of the same molecule?
Its value is 1 (7%).

What about the “Nausea, Subject Count (%)” value (CD subjects; not CD-related, 12 mg, N = 14) of the same molecule?
The value was 4 (29%).

And the “Stomach Discomfort, Subject Count (%)” value (CD subjects; not CD-related, 12 mg, N = 14)?
The value was 2 (14%).

What about the “Effects on the EKG” value (rabbits) of the same molecule?
Its value is “no notable effects”.

What about the “Safety and tolerability of multiple oral doses” value (Celiac Disease subjects; Phase IIa patient population) of the same molecule?
Its value is “demonstrated”.

And the Serious adverse events (Celiac Disease subjects; Phase IIa, 0.25-8 mg TID 14 days, preliminary observations)?
The Serious adverse events was “No Serious Adverse Events (SAEs)”.

And the “Clinically significant trends related to safety” value (Celiac Disease subjects; [11])?
The value was “No Clinically Significant trends related to safety”.

And the “Severity of adverse events” value (Celiac Disease subjects; [11])?
Its value is “mild or moderate in severity”.

And the “Structural or numerical chromosome aberrations” value [1]?
Its value is “negative for inducing structural or numerical chromosome aberrations”.

What about the Serious adverse events (healthy adults [2]; [12]) of the same molecule?
The Serious adverse events was “No Serious Adverse Events (SAEs)”.

And the “Severity of adverse events” value (healthy adults [2]; [12])?
The value was “mild or moderate in severity”.

What about the “Clinically significant trends (clinical laboratory, vital sign, EKG, physical examination)” value (healthy adults [2]; single dose trial) of the same molecule?
The value was “No clinically significant treatment-related trends; also recorded: No Clinically Significant trends related to safety”.

And the Serious adverse events (healthy adults [3])?
Its Serious adverse events is “No Serious Adverse Events (SAEs)”.

And the “Severity of adverse events” value (healthy adults [3])?
The value was “all mild in severity”.

And the Stability [4]?
Its Stability is “up to 1 year”.

And the “Passage into the submucosa or the vasculature” value ([5]; fluorescent FITC labeling)?
Its value is “measurable amounts of the antagonist do not cross into the submucosa or the vasculature”.

What about the Systemic toxicities ([5]; supra-therapeutic dosing in animals) of the same molecule?
Its Systemic toxicities is “devoid of significant systemic toxicities”.

And the Systemic absorption ([5]; supra-therapeutic dosing in animals, multi-particulate oral formulation)?
The Systemic absorption was “not systemically absorbed to any significant extent”.

What about the Mutagenic activity [6] of the same molecule?
The Mutagenic activity was “negative for mutagenic activity”.

What about the solubility of the same molecule?
The solubility was > 1000 µg/mL.

What about the “Body weight gain in recovery group” value (rats; 28 day study, males at week 8 (recovery week 4)) of the same molecule?
Its value is “body weight gain was lower in the dose males at week 8”.

What about the “Treatment-related findings, 14 day repeat-dose study” value (rats; oral gavage once daily for 14 days up to 1000 mg/kg) of the same molecule?
Its value is “no treatment-related clinical observations, clinical pathology changes, body weight or weight gain changes, organ weight changes, or gross or microscopic tissue changes”.

And the “Food consumption, body weights/gains, ophthalmic observations” value (rats; [13])?
Its value is “unaffected by treatment”.

And the “Gross necropsy or histopathology findings” value (rats; [13])?
The value was “No gross necropsy or histopathology findings were considered to be treatment-related”.

What about the Treatment-related deaths (rats; [13]) of the same molecule?
The Treatment-related deaths was “No treatment-related deaths occurred”.

What about the “Clinical observations, clinical chemistry, gross postmortem observations” value (rats; single dose intravenously up to 5 mg/kg) of the same molecule?
The value was “no clinical observations, clinical chemistry changes, or gross postmortem observations”.

What about the Plasma drug levels [7] of the same molecule?
Its Plasma drug levels is “No measurable plasma drug levels”.

And the Signs of toxicity (Beagle dogs; Beagle dogs, single dose up to 5 mg/kg intravenously, observed 14 days)?
Its Signs of toxicity is “no signs of toxicity were observed”.

What about the “Clinical signs of toxicity” value (Beagle dogs; dogs, enteric-coated beads 20 mg/kg day 1, 40 mg/kg day 2) of the same molecule?
The value was “no clinical signs of toxicity were noted”.

What about the “Total protein and globulin levels” value (Beagle dogs; dogs, enteric-coated beads 20 mg/kg day 1, 40 mg/kg day 2, 24 hr after 40 mg/kg) of the same molecule?
Its value is “slightly elevated”.

What about the “Treatment-related deaths and appearance” value (Beagle dogs; dogs, enteric-coated beads orally up to 9 mg/kg daily for 4 weeks) of the same molecule?
Its value is “No treatment-related deaths occurred and all dogs appeared normal”.

What about the “Body weights, body weight gains, ophthalmic observations and EKG readings” value (Beagle dogs; [14]) of the same molecule?
The value was “unaffected by treatment”.

And the “Gross necropsy or histopathology findings” value (Beagle dogs; [14])?
The value was “None of the gross necropsy or histopathology findings were considered to be treatment-related”.

And the “Effect on IKr current” value [8]?
The value was “None of the concentrations of AT-1001 caused statistically significant effects”.

Source: patent US9279807B2, “Materials and methods for the treatment of celiac disease” (ALBA THERAPEUTICS CORPORATION, priority 2006, dated 2016)
